“And” between values parts separate entries of the source, which are not always exact repeats. Equal entries are not always repeated. HELM strings list units from the 5' end as sugar, base in round brackets, then linkage (d deoxyribose, r ribose, m 2'-O-methyl, p phosphodiester). Strings are as the collection lists them, not checked against the first reports. ss, as = sense and antisense strand; [lna] = locked nucleic acid (LNA); [fl2r] = 2'-fluoro
Also: test system not given here.

For the data set the following is noted: siRNA.
Consider “RNA1{r(C)p.r(U)p.r(C)p.r(C)p.r(G)p.r(A)p.m(C)p.m(A)p.r(G)p.r(A)p.m(U)p.r(G)p.r(A)p.r(A)p.r(G)p.r(G)p.r(A)p.r(A)p.r(A)p.r(T)p.r(T)}|RNA2{r(U)p.r(U)p.r(U)p.r(C)p.r(C)p.r(U)p.r(U)p.m(C)p.r(A)p.r(U)p.r(C)p.m(U)p.m(G)p.r(U)p.r(C)p.r(G)p.r(G)p.r(A)p.r(G)p.r(T)p.r(T)}$$$RNA1{StrandType:ss}|RNA2{StrandType:as}$”, for which the target mRNA knockdown was determined as 70%.

“RNA1{r(C)p.r(U)p.r(C)p.r(C)p.r(G)p.r(A)p.r(C)p.r(A)p.r(G)p.r(A)p.m(U)p.r(G)p.r(A)p.r(A)p.r(G)p.r(G)p.r(A)p.r(A)p.r(A)p.r(T)p.r(T)}|RNA2{r(U)p.r(U)p.r(U)p.r(C)p.r(C)p.r(U)p.r(U)p.r(C)p.r(A)p.r(U)p.r(C)p.m(U)p.r(G)p.r(U)p.r(C)p.r(G)p.r(G)p.r(A)p.r(G)p.r(T)p.r(T)}$$$RNA1{StrandType:ss}|RNA2{StrandType:as}$” gave a target mRNA knockdown of 72%.

On to “RNA1{r(C)p.r(U)p.r(C)p.r(C)p.r(U)p.r(U)p.m(C)p.r(A)p.r(U)p.r(U)p.r(C)p.m(C)p.r(A)p.r(G)p.r(C)p.r(C)p.m(U)p.r(A)p.r(U)p.r(T)p.r(T)}|RNA2{r(A)p.m(U)p.r(A)p.r(G)p.r(G)p.r(C)p.m(U)p.r(G)p.r(G)p.r(A)p.r(A)p.m(U)p.r(G)p.r(A)p.r(A)p.r(G)p.r(G)p.r(A)p.r(G)p.r(T)p.r(T)}$$$RNA1{StrandType:ss}|RNA2{StrandType:as}$”, for which the target mRNA knockdown amounted to 78%.

On to “RNA1{r(C)p.r(U)p.r(C)p.r(C)p.r(U)p.r(U)p.r(C)p.r(A)p.r(U)p.r(U)p.r(C)p.r(C)p.r(A)p.r(G)p.r(C)p.r(C)p.m(U)p.r(A)p.r(U)p.r(T)p.r(T)}|RNA2{r(A)p.m(U)p.r(A)p.r(G)p.r(G)p.r(C)p.r(U)p.r(G)p.r(G)p.r(A)p.r(A)p.r(U)p.r(G)p.r(A)p.r(A)p.r(G)p.r(G)p.r(A)p.r(G)p.r(T)p.r(T)}$$$RNA1{StrandType:ss}|RNA2{StrandType:as}$”, for which the target mRNA knockdown stood at 81%.

In turn, “RNA1{r(C)p.r(U)p.r(C)p.r(U)p.r(C)p.r(C)p.[fl2r](U)p.r(A)p.r(C)p.r(C)p.r(U)p.[fl2r](U)p.r(C)p.r(U)p.r(C)p.r(C)p.[fl2r](U)p.r(C)p.r(U)p.r(T)p.r(T)}|RNA2{r(A)p.r(G)p.r(A)p.r(G)p.r(G)p.r(A)p.r(G)p.r(A)p.r(A)p.r(G)p.r(G)p.[fl2r](U)p.r(A)p.r(G)p.r(G)p.r(A)p.r(G)p.r(A)p.r(G)p.r(T)p.r(T)}$$$RNA1{StrandType:ss}|RNA2{StrandType:as}$” returned a target mRNA knockdown of 73%.

For the substance “RNA1{r(C)p.r(U)p.r(C)p.r(U)p.r(C)p.r(C)p.r(U)p.[fl2r](A)p.r(C)p.r(C)p.r(U)p.r(U)p.r(C)p.r(U)p.r(C)p.r(C)p.r(U)p.r(C)p.r(U)p.r(T)p.r(T)}|RNA2{r(A)p.r(G)p.r(A)p.r(G)p.r(G)p.r(A)p.r(G)p.r(A)p.r(A)p.r(G)p.r(G)p.r(U)p.r(A)p.r(G)p.r(G)p.r(A)p.r(G)p.r(A)p.r(G)p.r(T)p.r(T)}$$$RNA1{StrandType:ss}|RNA2{StrandType:as}$”, the target mRNA knockdown amounted to 78%.

With “RNA1{r(C)p.r(U)p.r(C)p.r(U)p.r(G)p.r(G)p.r(C)p.r(C)p.r(U)p.r(U)p.r(U)p.r(C)p.r(U)p.r(C)p.r(U)p.r(C)p.m(U)p.r(A)p.r(G)p.r(T)p.r(T)}|RNA2{r(C)p.r(U)p.r(A)p.r(G)p.r(A)p.r(G)p.r(A)p.r(G)p.r(A)p.r(A)p.r(A)p.r(G)p.r(G)p.r(C)p.r(C)p.r(A)p.r(G)p.r(A)p.r(G)p.r(T)p.r(T)}$$$RNA1{StrandType:ss}|RNA2{StrandType:as}$”, the target mRNA knockdown was determined as 47%.

Take “RNA1{r(C)p.r(U)p.r(G)p.r(A)p.r(C)p.r(C)p.r(G)p.r(G)p.r(A)p.r(A)p.r(G)p.r(C)p.r(G)p.r(C)p.r(U)p.m(U)p.r(A)p.r(A)p.r(A)p.r(T)p.r(T)}|RNA2{r(U)p.r(U)p.m(U)p.r(A)p.r(A)p.r(G)p.r(C)p.r(G)p.r(C)p.r(U)p.r(U)p.r(C)p.r(C)p.r(G)p.r(G)p.r(U)p.r(C)p.r(A)p.r(G)p.r(T)p.r(T)}$$$RNA1{StrandType:ss}|RNA2{StrandType:as}$”: the target mRNA knockdown came to 86%.

“RNA1{r(C)p.r(U)p.r(G)p.r(G)p.r(U)p.r(A)p.r(A)p.r(A)p.r(G)p.r(C)p.r(A)p.r(U)p.r(U)p.r(C)p.r(A)p.r(G)p.r(U)p.r(A)p.r(U)p.d(T)p.d(T)}|RNA2{r(A)p.r(U)p.r(A)p.r(C)p.r(U)p.r(G)p.r(A)p.r(A)p.r(U)p.r(G)p.r(C)p.r(U)p.r(U)p.r(U)p.r(A)p.r(C)p.r(C)p.r(A)p.r(G)p.d(T)p.d(T)}$$$RNA1{StrandType:ss}|RNA2{StrandType:as}$” had a target mRNA knockdown of 82%.

Regarding “RNA1{r(C)p.r(U)p.r(U)p.r(A)p.r(C)p.r(G)p.r(C)p.r(U)p.r(C)p.r(U)p.r(G)p.r(U)p.r(A)p.r(C)p.r(U)p.r(U)p.r(C)p.r(G)p.r(A)p.d(T)p.d(T)}|RNA2{r(U)p.r(C)p.r(G)p.r(A)p.r(A)p.r(G)p.r(U)p.r(A)p.r(C)p.r(U)p.r(C)p.r(A)p.r(G)p.r(C)p.r(G)p.r(U)p.r(A)p.r(A)p.r(G)p.d(T)p.d(T)}$$$RNA1{StrandType:ss}|RNA2{StrandType:as}$”, the target mRNA knockdown was 92% and 94%.

“RNA1{r(C)p.r(U)p.r(U)p.r(A)p.r(C)p.r(G)p.r(C)p.r(U)p.r(G)p.r(A)p.r(G)p.r(U)p.r(A)p.r(C)p.r(U)p.r(U)p.r(C)p.r(G)p.r(A)p.[lna](T)p.[lna](T)}|RNA2{[lna](T)p.r(C)p.r(G)p.r(A)p.r(A)p.r(G)p.r(U)p.r(A)p.r(C)p.r(U)p.r(C)p.r(A)p.r(G)p.r(C)p.r(G)p.r(U)p.r(A)p.r(A)p.r(G)p.[lna](T)p.[lna](T)}$$$RNA1{StrandType:ss}|RNA2{StrandType:as}$” gave a target mRNA knockdown of 27%.

As for “RNA1{r(C)p.r(U)p.r(U)p.r(A)p.r(C)p.r(G)p.r(C)p.r(U)p.r(G)p.r(A)p.r(G)p.r(U)p.r(A)p.r(C)p.r(U)p.r(U)p.r(C)p.r(G)p.r(A)p.[lna](T)p.[lna](T)}|RNA2{r(U)p.r(C)p.r(G)p.r(A)p.r(A)p.r(G)p.r(U)p.r(A)p.r(C)p.r(U)p.r(C)p.r(A)p.r(G)p.r(C)p.r(G)p.r(U)p.r(A)p.r(A)p.r(G)p.[lna](T)p.[lna](T)}$$$RNA1{StrandType:ss}|RNA2{StrandType:as}$”, the target mRNA knockdown was 93% and 92%.

“RNA1{r(C)p.r(U)p.r(U)p.r(A)p.r(C)p.r(G)p.r(C)p.r(U)p.r(G)p.r(A)p.r(G)p.r(U)p.r(A)p.r(C)p.r(U)p.r(U)p.r(C)p.r(G)p.r(A)p.[lna](T)p.[lna](T)}|RNA2{r(U)p.r(C)p.r(G)p.r(A)p.r(A)p.r(G)p.r(U)p.r(A)p.r(C)p.r(U)p.r(C)p.r(A)p.r(G)p.r(C)p.r(G)p.r(U)p.r(A)p.r(A)p.r(G)p.d(T)p.d(T)}$$$RNA1{StrandType:ss}|RNA2{StrandType:as}$”: the target mRNA knockdown worked out at 96%.

In the case of “RNA1{r(C)p.r(U)p.r(U)p.r(A)p.r(C)p.r(G)p.r(C)p.r(U)p.r(G)p.r(A)p.r(G)p.r(U)p.r(A)p.r(C)p.r(U)p.r(U)p.r(C)p.r(G)p.r(A)p.[lna](T)p.[lna](T)}|RNA2{r(U)p.r(C)p.r(G)p.r(A)p.r(A)p.r(G)p.r(U)p.r(A)p.r(C)p.r(U)p.r(C)p.r(A)p.r(G)p.r(C)p.r(G)p.r(U)p.r(A)p.r(A)p.r(G)p.r(T)p.r(T)}$$$RNA1{StrandType:ss}|RNA2{StrandType:as}$”, the target mRNA knockdown stood at 97%.

For “RNA1{r(C)p.r(U)p.r(U)p.r(A)p.r(C)p.r(G)p.r(C)p.r(U)p.r(G)p.r(A)p.r(G)p.r(U)p.r(A)p.r(C)p.r(U)p.r(U)p.r(C)p.r(G)p.r(A)p.d(T)p.d(T)}|RNA2{[lna](T)p.r(C)p.r(G)p.r(A)p.r(A)p.r(G)p.r(U)p.[lna](A)p.r(C)p.r(U)p.[lna](C)p.r(A)p.r(G)p.r(C)p.r(G)p.r(U)p.[lna](A)p.r(A)p.r(G)p.[lna](T)p.[lna](T)}$$$RNA1{StrandType:ss}|RNA2{StrandType:as}$”, the target mRNA knockdown was 15%.

Substance “RNA1{r(C)p.r(U)p.r(U)p.r(A)p.r(C)p.r(G)p.r(C)p.r(U)p.r(G)p.r(A)p.r(G)p.r(U)p.r(A)p.r(C)p.r(U)p.r(U)p.r(C)p.r(G)p.r(A)p.d(T)p.d(T)}|RNA2{[lna](T)p.r(C)p.r(G)p.r(A)p.r(A)p.r(G)p.r(U)p.r(A)p.r(C)p.r(U)p.r(C)p.r(A)p.r(G)p.r(C)p.r(G)p.r(U)p.r(A)p.r(A)p.r(G)p.[lna](T)p.[lna](T)}$$$RNA1{StrandType:ss}|RNA2{StrandType:as}$” registered a target mRNA knockdown of 55%.

As for “RNA1{r(C)p.r(U)p.r(U)p.r(A)p.r(C)p.r(G)p.r(C)p.r(U)p.r(G)p.r(A)p.r(G)p.r(U)p.r(A)p.r(C)p.r(U)p.r(U)p.r(C)p.r(G)p.r(A)p.d(T)p.d(T)}|RNA2{r(U)p.r(C)p.r(G)p.r(A)p.r(A)p.r(G)p.r(U)p.r(A)p.r(C)p.[lna](T)p.r(C)p.r(A)p.r(G)p.r(C)p.r(G)p.r(U)p.r(A)p.r(A)p.r(G)p.[lna](T)p.[lna](T)}$$$RNA1{StrandType:ss}|RNA2{StrandType:as}$”, the target mRNA knockdown amounted to 52%.

Take “RNA1{r(C)p.r(U)p.r(U)p.r(A)p.r(C)p.r(G)p.r(C)p.r(U)p.r(G)p.r(A)p.r(G)p.r(U)p.r(A)p.r(C)p.r(U)p.r(U)p.r(C)p.r(G)p.r(A)p.d(T)p.d(T)}|RNA2{r(U)p.r(C)p.r(G)p.r(A)p.r(A)p.r(G)p.r(U)p.r(A)p.r(C)p.[lna](T)p.r(C)p.r(A)p.r(G)p.r(C)p.r(G)p.r(U)p.r(A)p.r(A)p.r(G)p.[lna](T)p.r(T)}$$$RNA1{StrandType:ss}|RNA2{StrandType:as}$”: the target mRNA knockdown turned out to be 93%.

“RNA1{r(C)p.r(U)p.r(U)p.r(A)p.r(C)p.r(G)p.r(C)p.r(U)p.r(G)p.r(A)p.r(G)p.r(U)p.r(A)p.r(C)p.r(U)p.r(U)p.r(C)p.r(G)p.r(A)p.d(T)p.d(T)}|RNA2{r(U)p.r(C)p.r(G)p.r(A)p.r(A)p.r(G)p.r(U)p.r(A)p.r(C)p.r(U)p.r(C)p.r(A)p.r(G)p.r(C)p.r(G)p.r(U)p.r(A)p.r(A)p.r(G)p.[lna](T)p.[lna](T)}$$$RNA1{StrandType:ss}|RNA2{StrandType:as}$” had a target mRNA knockdown of 92%.

For the substance “RNA1{r(C)p.r(U)p.r(U)p.r(A)p.r(C)p.r(G)p.r(C)p.r(U)p.r(G)p.r(A)p.r(G)p.r(U)p.r(A)p.r(C)p.r(U)p.r(U)p.r(C)p.r(G)p.r(A)p.r(T)p.r(T)}|RNA2{[lna](T)p.r(C)p.r(G)p.r(A)p.r(A)p.r(G)p.[lna](T)p.r(A)p.r(C)p.[lna](T)p.r(C)p.r(A)p.r(G)p.r(C)p.r(G)p.[lna](T)p.r(A)p.r(A)p.r(G)p.[lna](T)p.[lna](T)}$$$RNA1{StrandType:ss}|RNA2{StrandType:as}$”, the target mRNA knockdown was 19%.
